Assay results: ChEMBL document CHEMBL5291721, “A preclinical secondary pharmacology resource illuminates target-adverse drug reaction associations of marketed drugs” (Nat Commun, 2023)

Tests used:
[1] = biological target: T1, Cholecystokinin receptor type A (Homo sapiens, UniProt P32238)
T1 sequence (P32238 whole entry): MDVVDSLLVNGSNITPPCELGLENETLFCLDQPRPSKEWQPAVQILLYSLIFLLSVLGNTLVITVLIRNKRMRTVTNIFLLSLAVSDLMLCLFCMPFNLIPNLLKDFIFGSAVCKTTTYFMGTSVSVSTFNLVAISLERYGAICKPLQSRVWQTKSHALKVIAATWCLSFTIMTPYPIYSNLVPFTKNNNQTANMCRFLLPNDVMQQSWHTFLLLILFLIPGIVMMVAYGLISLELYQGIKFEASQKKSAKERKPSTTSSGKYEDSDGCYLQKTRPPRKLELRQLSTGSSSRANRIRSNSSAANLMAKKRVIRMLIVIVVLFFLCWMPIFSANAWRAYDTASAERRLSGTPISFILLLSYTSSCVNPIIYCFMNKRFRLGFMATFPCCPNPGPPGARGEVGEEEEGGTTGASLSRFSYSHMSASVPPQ

[2] = biological target: T2, Amine oxidase [flavin-containing] A (Homo sapiens, UniProt P21397); format: functional
T2 sequence (P21397 whole entry): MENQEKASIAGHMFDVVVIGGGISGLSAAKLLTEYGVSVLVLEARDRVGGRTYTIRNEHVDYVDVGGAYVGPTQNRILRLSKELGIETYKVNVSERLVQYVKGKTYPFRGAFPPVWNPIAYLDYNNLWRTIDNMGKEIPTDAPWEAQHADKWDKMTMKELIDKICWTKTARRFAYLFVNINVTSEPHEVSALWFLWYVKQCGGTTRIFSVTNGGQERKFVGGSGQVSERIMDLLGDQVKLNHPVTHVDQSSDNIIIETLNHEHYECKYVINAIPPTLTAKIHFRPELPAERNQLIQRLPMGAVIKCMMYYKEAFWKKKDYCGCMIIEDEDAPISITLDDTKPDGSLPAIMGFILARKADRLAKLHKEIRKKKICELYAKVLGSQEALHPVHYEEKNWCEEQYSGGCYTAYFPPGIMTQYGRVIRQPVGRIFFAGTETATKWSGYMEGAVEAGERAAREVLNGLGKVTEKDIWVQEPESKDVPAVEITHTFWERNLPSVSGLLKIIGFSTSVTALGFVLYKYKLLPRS

[3] = biological target: Glutamate receptor ionotropic, NMDA 1 (Rattus norvegicus, UniProt P35439)
[4] = biological target: Vasopressin V2 receptor (Homo sapiens, UniProt P30518)
[5] = biological target: T3, Neuropeptide Y receptor type 1 (Homo sapiens, UniProt P25929)
T3 sequence (P25929 whole entry): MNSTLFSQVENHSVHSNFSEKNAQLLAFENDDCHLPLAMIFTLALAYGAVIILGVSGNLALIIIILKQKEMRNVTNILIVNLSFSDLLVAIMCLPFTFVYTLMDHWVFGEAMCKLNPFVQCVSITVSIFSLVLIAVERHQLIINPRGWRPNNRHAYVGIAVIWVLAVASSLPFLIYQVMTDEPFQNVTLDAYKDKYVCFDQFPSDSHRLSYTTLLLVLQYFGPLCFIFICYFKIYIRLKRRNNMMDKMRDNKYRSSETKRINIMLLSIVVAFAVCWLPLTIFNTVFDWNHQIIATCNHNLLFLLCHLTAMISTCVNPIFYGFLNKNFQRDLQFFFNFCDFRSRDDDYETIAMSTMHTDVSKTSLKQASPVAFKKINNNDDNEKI

[6] = biological target: Beta-2 adrenergic receptor (Homo sapiens, UniProt P07550)
[7] = biological target: Melanocortin receptor 3 (Homo sapiens, UniProt P41968)
[8] = biological target: Sodium-dependent dopamine transporter (Homo sapiens, UniProt Q01959)
[9] = biological target: T4, 5-hydroxytryptamine receptor 2C (Homo sapiens, UniProt P28335)
T4 sequence (P28335 whole entry): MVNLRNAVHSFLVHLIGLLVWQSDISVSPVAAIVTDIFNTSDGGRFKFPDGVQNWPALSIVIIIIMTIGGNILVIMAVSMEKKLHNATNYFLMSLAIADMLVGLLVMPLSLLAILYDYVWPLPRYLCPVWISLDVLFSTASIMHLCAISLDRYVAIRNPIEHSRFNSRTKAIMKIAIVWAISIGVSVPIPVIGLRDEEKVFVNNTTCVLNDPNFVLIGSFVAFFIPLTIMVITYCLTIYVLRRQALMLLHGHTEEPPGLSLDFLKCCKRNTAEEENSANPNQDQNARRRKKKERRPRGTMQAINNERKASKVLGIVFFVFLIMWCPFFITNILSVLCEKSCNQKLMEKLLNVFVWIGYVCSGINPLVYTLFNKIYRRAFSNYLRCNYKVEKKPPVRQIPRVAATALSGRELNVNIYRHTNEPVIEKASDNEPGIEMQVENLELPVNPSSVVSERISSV

[10] = biological target: T5, Alpha-2A adrenergic receptor (Homo sapiens, UniProt P08913); format: functional, cell-based
T5 sequence (P08913 whole entry): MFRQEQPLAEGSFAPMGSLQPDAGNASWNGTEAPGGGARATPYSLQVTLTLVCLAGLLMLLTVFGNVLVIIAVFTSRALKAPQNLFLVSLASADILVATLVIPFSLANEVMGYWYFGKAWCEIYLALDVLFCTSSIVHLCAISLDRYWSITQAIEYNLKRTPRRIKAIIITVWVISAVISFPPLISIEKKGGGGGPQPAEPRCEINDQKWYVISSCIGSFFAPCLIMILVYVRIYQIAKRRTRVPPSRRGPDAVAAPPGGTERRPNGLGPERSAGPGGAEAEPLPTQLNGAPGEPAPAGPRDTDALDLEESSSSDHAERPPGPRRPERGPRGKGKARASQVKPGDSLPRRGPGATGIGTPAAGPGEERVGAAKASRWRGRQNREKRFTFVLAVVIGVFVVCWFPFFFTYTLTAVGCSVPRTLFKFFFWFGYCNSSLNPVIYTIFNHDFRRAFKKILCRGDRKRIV
Further: assay procedure not described here.

Chain of Vasopressin V2 receptor (P30518 whole entry): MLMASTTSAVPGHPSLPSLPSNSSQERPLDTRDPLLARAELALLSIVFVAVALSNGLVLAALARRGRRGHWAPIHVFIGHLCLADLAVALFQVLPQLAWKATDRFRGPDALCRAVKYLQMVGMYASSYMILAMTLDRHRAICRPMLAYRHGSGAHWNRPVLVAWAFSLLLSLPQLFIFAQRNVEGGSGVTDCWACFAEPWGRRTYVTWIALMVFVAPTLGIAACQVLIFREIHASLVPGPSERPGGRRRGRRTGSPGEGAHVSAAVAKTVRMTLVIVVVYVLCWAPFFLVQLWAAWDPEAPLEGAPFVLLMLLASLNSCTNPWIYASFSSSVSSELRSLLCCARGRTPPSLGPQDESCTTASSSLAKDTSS
Chain of Melanocortin receptor 3 (P41968 whole entry): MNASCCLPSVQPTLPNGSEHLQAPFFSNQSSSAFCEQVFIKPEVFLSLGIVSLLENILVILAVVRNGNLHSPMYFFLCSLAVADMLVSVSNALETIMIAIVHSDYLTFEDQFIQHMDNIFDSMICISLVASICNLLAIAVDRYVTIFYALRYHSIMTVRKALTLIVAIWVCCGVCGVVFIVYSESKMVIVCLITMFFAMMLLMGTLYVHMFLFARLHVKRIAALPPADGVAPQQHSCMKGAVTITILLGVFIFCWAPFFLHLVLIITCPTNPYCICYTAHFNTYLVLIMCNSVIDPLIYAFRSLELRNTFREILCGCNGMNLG
Chain of Sodium-dependent dopamine transporter (Q01959 whole entry): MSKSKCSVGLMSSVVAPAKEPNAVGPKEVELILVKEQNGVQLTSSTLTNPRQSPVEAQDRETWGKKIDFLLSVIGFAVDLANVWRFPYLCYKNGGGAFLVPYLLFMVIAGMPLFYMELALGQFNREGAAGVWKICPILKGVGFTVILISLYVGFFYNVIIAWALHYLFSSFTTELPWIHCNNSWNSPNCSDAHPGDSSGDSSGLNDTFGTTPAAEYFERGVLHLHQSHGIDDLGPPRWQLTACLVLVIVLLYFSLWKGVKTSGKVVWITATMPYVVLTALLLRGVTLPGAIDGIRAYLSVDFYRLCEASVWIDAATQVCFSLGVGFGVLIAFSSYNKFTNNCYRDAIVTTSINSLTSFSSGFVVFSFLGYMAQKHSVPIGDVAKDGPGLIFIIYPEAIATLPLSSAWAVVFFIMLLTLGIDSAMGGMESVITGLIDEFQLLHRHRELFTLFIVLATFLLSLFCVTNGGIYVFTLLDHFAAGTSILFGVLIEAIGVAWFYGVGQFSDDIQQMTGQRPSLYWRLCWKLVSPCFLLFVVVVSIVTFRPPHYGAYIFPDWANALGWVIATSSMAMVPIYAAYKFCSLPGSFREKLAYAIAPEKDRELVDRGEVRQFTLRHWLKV
Chain of Beta-2 adrenergic receptor (P07550 whole entry): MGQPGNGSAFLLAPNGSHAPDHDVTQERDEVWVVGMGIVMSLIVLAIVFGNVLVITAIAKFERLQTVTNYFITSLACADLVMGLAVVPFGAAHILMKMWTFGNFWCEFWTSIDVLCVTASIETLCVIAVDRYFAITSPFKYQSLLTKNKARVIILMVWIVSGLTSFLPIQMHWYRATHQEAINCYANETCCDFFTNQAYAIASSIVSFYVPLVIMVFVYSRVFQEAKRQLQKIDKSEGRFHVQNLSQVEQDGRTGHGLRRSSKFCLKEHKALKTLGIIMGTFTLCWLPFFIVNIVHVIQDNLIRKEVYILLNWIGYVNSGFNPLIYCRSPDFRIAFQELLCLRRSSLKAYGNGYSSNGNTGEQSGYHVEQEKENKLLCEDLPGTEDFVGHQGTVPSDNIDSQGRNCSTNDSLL

COC(=O)[C@H]1[C@H]2C[C@@H]3c4[nH]c5cc(OC)ccc5c4CCN3C[C@H]2C[C@@H](OC(=O)/C=C/c2cc(OC)c(OC)c(OC)c2)[C@@H]1OC [RESCINNAMINE]
AC50 [1]: > 10 µM | AC50 [2]: > 10 µM | AC50 [3]: > 10 µM | AC50 [4]: > 10 µM | AC50 [5]: > 10 µM | AC50 [6]: > 10 µM | AC50 [7]: > 10 µM | AC50 [8]: 18.9 µM | AC50 [9]: > 30 µM | AC50 [10]: > 10 µM

O=C(O)CCCCCCCC(=O)O [AZELAIC ACID]
AC50 [1]: > 10 µM | AC50 [2]: > 10 µM | AC50 [3]: > 10 µM | AC50 [4]: > 10 µM | AC50 [5]: > 10 µM | AC50 [6]: > 10 µM | AC50 [7]: > 10 µM | AC50 [8]: > 10 µM | AC50 [9]: > 30 µM | AC50 [10]: > 10 µM

O=C(O)[C@H](CC(=O)N1C[C@H]2CCCC[C@H]2C1)Cc1ccccc1 [MITIGLINIDE]
AC50 [1]: > 10 µM | AC50 [2]: > 10 µM | AC50 [3]: > 10 µM | AC50 [4]: > 10 µM | AC50 [5]: > 10 µM | AC50 [6]: > 10 µM | AC50 [7]: > 10 µM | AC50 [8]: > 10 µM | AC50 [9]: > 30 µM | AC50 [10]: > 10 µM

CCCC(C)C1(CC)C(=O)NC(=O)NC1=O (stereo not given) [PENTOBARBITAL]
AC50 [1]: > 10 µM | AC50 [2]: > 30 µM | AC50 [3]: > 10 µM | AC50 [4]: > 10 µM | AC50 [5]: > 10 µM | AC50 [6]: > 10 µM | AC50 [7]: > 10 µM | AC50 [8]: > 10 µM | AC50 [9]: > 30 µM | AC50 [10]: > 10 µM

O=C(O)C[C@H](O)C[C@H](O)/C=C/c1c(C2CC2)nc2ccccc2c1-c1ccc(F)cc1 [PITAVASTATIN]
AC50 [1]: > 10 µM | AC50 [2]: > 30 µM | AC50 [3]: > 10 µM | AC50 [4]: > 10 µM | AC50 [5]: > 10 µM | AC50 [6]: > 10 µM | AC50 [7]: > 30 µM | AC50 [8]: > 30 µM | AC50 [9]: > 30 µM | AC50 [10]: > 10 µM

COC(=O)C1=C(C)NC(C)=C(C(=O)OC(C)(C)CN(C)CCC(c2ccccc2)c2ccccc2)C1c1cccc([N+](=O)[O-])c1 (stereo not given) [LERCANIDIPINE]
AC50 [1]: > 30 µM | AC50 [2]: > 30 µM | AC50 [3]: > 30 µM | AC50 [4]: > 30 µM | AC50 [5]: > 30 µM | AC50 [6]: > 30 µM | AC50 [7]: > 30 µM | AC50 [8]: 35.7 µM | AC50 [9]: > 30 µM | AC50 [10]: > 30 µM

C[C@H](CSC(=O)c1ccccc1)C(=O)N1C[C@@H](Sc2ccccc2)C[C@H]1C(=O)O [ZOFENOPRIL]
AC50 [1]: > 10 µM | AC50 [2]: > 10 µM | AC50 [3]: > 10 µM | AC50 [4]: > 10 µM | AC50 [5]: > 10 µM | AC50 [6]: > 10 µM | AC50 [7]: > 10 µM | AC50 [8]: > 10 µM | AC50 [9]: > 30 µM | AC50 [10]: > 10 µM

NCC[C@H](O)C(=O)N[C@@H]1C[C@H](N)[C@@H](O[C@H]2O[C@H](CN)[C@@H](O)[C@H](O)[C@H]2O)[C@H](O)[C@H]1O[C@H]1O[C@H](CO)[C@@H](O)[C@H](N)[C@H]1O [AMIKACIN]
AC50 [1]: > 10 µM | AC50 [2]: > 10 µM | AC50 [3]: > 10 µM | AC50 [4]: > 10 µM | AC50 [5]: > 10 µM | AC50 [6]: > 10 µM | AC50 [7]: > 10 µM | AC50 [8]: > 10 µM | AC50 [9]: > 30 µM | AC50 [10]: > 10 µM
